Source: ChEMBL document CHEMBL3885861, “Open TG-GATES”

Organism: Rattus norvegicus
Experiment: Open TG-GATES - Regimen: Daily Repeat
Format: toxicity, organism-based, Sprague-Dawley
Set-up: regimen Daily Repeat, gender Male, age 6 weeks
Details: in vivo, po, 150 mg/kg, […], route gavage, dose level Middle; for KIDNEY_L / KIDNEY_R / KIDNEY_TOTAL: tissue Kidney; for LIVER: tissue Liver; for A/G / ALP / ALT / AST / BUN / CRE / Ca / Cl / DBIL / GLC / IP / K / LDH / Na / PL / RALB / TBIL / TC / TG / TP / gamma-GTP: tissue Plasma

Compound `CN1C(=O)CCS(=O)(=O)C1c1ccc(Cl)cc1` (stereo unspecified) [CHLORMEZANONE] has a Lym (tissue Blood, time 28 day) of 78.8%, an MCH (tissue Blood, time 28 day) of 19.7 pg and an MCHC (tissue Blood, time 28 day) of 35.3%. For the same compound, the MCV (tissue Blood, time 28 day) was 55.7 fL, the Mono (tissue Blood, time 28 day) was 2.2% and the Neu (tissue Blood, time 28 day) was 16.8%. For the same compound, the PT (tissue Blood, time 28 day) was 11.9 s, the Plat (tissue Blood, time 28 day) was 105.4 x10_4/uL and the RBC (tissue Blood, time 28 day) was 741.2 x10_4/ul. The Ret (tissue Blood, time 28 day) was 2.8%, the WBC (tissue Blood, time 28 day) was 97.2 x10_2/uL and the KIDNEY_L (time 7 day) was 1 g. For the same compound, the KIDNEY_R (time 7 day) was 1 g, the KIDNEY_TOTAL (time 7 day) was 2 g and the KIDNEY_L (time 14 day) was 1.2 g. For the same compound, the KIDNEY_R (time 14 day) was 1.2 g, the KIDNEY_TOTAL (time 14 day) was 2.4 g and the KIDNEY_L (time 28 day) was 1.3 g. It also gave a KIDNEY_R (time 28 day) of 1.3 g, a KIDNEY_TOTAL (time 28 day) of 2.5 g and an LIVER (time 7 day) of 14.4 g. For the same compound, the LIVER (time 14 day) was 15.9 g, the LIVER (time 28 day) was 18.1 g and the A/G (time 7 day) was 0.9. The ALP (time 7 day) was 1471.4 IU/L, the ALT (time 7 day) was 46.2 IU/L and the AST (time 7 day) was 63.6 IU/L. It also gave a BUN (time 7 day) of 16.6 mg/dL, a CRE (time 7 day) of 0.2 mg/dL and a Ca (time 7 day) of 11.5 mg/dL. For the same compound, the Cl (time 7 day) was 107.8 meq/L, the DBIL (time 7 day) was 0.014 mg/dL and the GLC (time 7 day) was 193.2 mg/dL. It also gave an IP (time 7 day) of 6.9 mg/dL, a K (time 7 day) of 4.2 meq/L and an LDH (time 7 day) of 71.2 IU/L. The Na (time 7 day) was 143.8 meq/L, the PL (time 7 day) was 142.2 mg/dL and the RALB (time 7 day) was 2.8 g/dL. The TBIL (time 7 day) was 0.02 mg/dL, the TC (time 7 day) was 80.6 mg/dL and the TG (time 7 day) was 87 mg/dL. The TP (time 7 day) was 6 g/dL, the gamma-GTP (time 7 day) was 1.2 IU/L and the A/G (time 14 day) was 0.8. For the same compound, the ALP (time 14 day) was 1404.2 IU/L, the ALT (time 14 day) was 52.2 IU/L and the AST (time 14 day) was 63.4 IU/L. The BUN (time 14 day) was 17.2 mg/dL, the CRE (time 14 day) was 0.2 mg/dL and the Ca (time 14 day) was 11.3 mg/dL. It also gave a Cl (time 14 day) of 106.8 meq/L, a DBIL (time 14 day) of 0.006 mg/dL and a GLC (time 14 day) of 188.2 mg/dL. The IP (time 14 day) was 7 mg/dL, the K (time 14 day) was 4.3 meq/L and the LDH (time 14 day) was 76.6 IU/L. The Na (time 14 day) was 142.8 meq/L, the PL (time 14 day) was 136.8 mg/dL and the RALB (time 14 day) was 2.9 g/dL. It also gave a TBIL (time 14 day) of 0.052 mg/dL, a TC (time 14 day) of 74.4 mg/dL and a TG (time 14 day) of 74.4 mg/dL. It also gave a TP (time 14 day) of 6.3 g/dL, a gamma-GTP (time 14 day) of 1 IU/L and an A/G (time 28 day) of 0.9. For the same compound, the ALP (time 28 day) was 1029.8 IU/L, the ALT (time 28 day) was 46 IU/L and the AST (time 28 day) was 58 IU/L. For the same compound, the BUN (time 28 day) was 16.8 mg/dL, the CRE (time 28 day) was 0.3 mg/dL and the Ca (time 28 day) was 10.7 mg/dL. The Cl (time 28 day) was 105.8 meq/L, the DBIL (time 28 day) was 0.01 mg/dL and the GLC (time 28 day) was 190.4 mg/dL. The IP (time 28 day) was 5.8 mg/dL, the K (time 28 day) was 4.1 meq/L and the LDH (time 28 day) was 63.4 IU/L. It also gave a Na (time 28 day) of 142.8 meq/L, a PL (time 28 day) of 153.8 mg/dL and an RALB (time 28 day) of 2.9 g/dL. It also gave a TBIL (time 28 day) of 0.058 mg/dL, a TC (time 28 day) of 83.4 mg/dL and a TG (time 28 day) of 93.6 mg/dL. For the same compound, the TP (time 28 day) was 6.4 g/dL and the gamma-GTP (time 28 day) was 1 IU/L.
